Results published in patent publication US11401279B2, “Pyrido[3,2-d]pyrimidine compounds as immunomodulators” (Incyte Corporation, priority 2019, dated 2022).
pEC50, pIC50: −log10 of the molar value.

Assays:
[1] = tested on: U2OS/PD-L1 cells and Jurkat-PD-1-SHP cells; assay: Src homology region 2 domain-containing phosphatase (SHP) assay; type: cell-based; conditions: Homo sapiens, U2OS; PathHunter chemiluminescence, 2 hours
Protocol: U2OS/PD-L1 cells (DiscoveRx Corporation) were maintained in McCoy's 5A medium with addition of 10% FBS, 0.25 μg/mL Puromycin. After removing the culture media, the cell medium was replaced with assay medium (RPMI1640 medium with 1% FBS). The U2OS/PD-L1 cells were then added in 384-well black clear bottom assay plate (CELLCOAT® Tissue Culture Plates, Greiner Bio-One) at 5000 cells per well in 20 μL assay medium. Test compounds were prepared by serial dilution in DMSO and 125 nL compound were first transferred to the 384 REMP plate well (Thermofisher) by ECHO liquid handler (Labcyte) followed with addition of 27.5 μL assay medium. 5 µL/well compounds in the assay medium were transferred to the cell plate with 0.05% DMSO in the final assay at 0.25 μM. Jurkat-PD-1-SHP cells (DiscoveRx Corporation) were cultured in RPMI1640 medium supplemented with 10% FBS, 250 μg/mL Hygromycin B, 500 μg/mL G418. After the replacement of culture media with assay medium, 5,000 Jurkat-PD-1-SHP cells in 20 μL were dispensed into each well. The assay plate was incubated at 37° C., 5% CO2 for 2 hours before 2.5 μL PathHunter reagent 1 (DiscoveRx Corporation) were added to each well. The assay plate was shaken for 1 min at 350 rpm in the dark followed with addition of 10 μL PathHunter reagent 2 (DiscoveRx Corporation). Chemiluminescent signal was recorded with TopCount reader (Perkin Elmer) after incubation at room temperature for 1 hour. Wells with DMSO were served as the positive controls and wells containing no cells were used as negative controls. IC50 determination was performed by fitting the curve of percentage of control activity versus the log of the compound concentration using the GraphPad Prism 6.0 software.

PD-1/PD-L1 = PD-1/PD-L1 (Homo sapiens (Human), UniProt Q9NZQ7); assay: Homogeneous Time-Resolved Fluorescence (HTRF) PD-1/PD-L1 binding assay; conditions: recombinant human PD-1 and PD-L1
PD-1/PD-L1, sequence (Q9NZQ7 19-238): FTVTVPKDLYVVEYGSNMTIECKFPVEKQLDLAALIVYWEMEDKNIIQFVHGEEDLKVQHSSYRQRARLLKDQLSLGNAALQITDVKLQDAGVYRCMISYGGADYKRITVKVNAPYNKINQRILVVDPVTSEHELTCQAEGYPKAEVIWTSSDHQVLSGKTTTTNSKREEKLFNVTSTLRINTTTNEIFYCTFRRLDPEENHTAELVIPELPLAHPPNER
Protocol: The assays were conducted in a standard black 384-well polystyrene plate with a final volume of 20 μL. Inhibitors were first serially diluted in DMSO and then added to the plate wells before the addition of other reaction components. The final concentration of DMSO in the assay was 1%. The assays were carried out at 25° C. in the PBS buffer (pH 7.4) with 0.05% Tween-20 and 0.1% BSA. Recombinant human PD-L1 protein (19-238) with a His-tag at the C-terminus was purchased from AcroBiosystems (PD1-H5229). Recombinant human PD-1 protein (25-167) with Fc tag at the C-terminus was also purchased from AcroBiosystems (PD1-H5257). PD-L1 and PD-1 proteins were diluted in the assay buffer and 10 μL was added to the plate well. Plates were centrifuged and proteins were preincubated with inhibitors for 40 minutes. The incubation was followed by the addition of 10 μL of HTRF detection buffer supplemented with Europium cryptate-labeled anti-human IgG (PerkinElmer-AD0212) specific for Fc and anti-His antibody conjugated to SureLight®-Allophycocyanin (APC, PerkinElmer-AD0059H). After centrifugation, the plate was incubated at 25° C. for 60 min. before reading on a PHERAstar FS plate reader (665 nm/620 nm ratio). Final concentrations in the assay were—3 nM PD1, 10 nM PD-L1, 1 nM europium anti-human IgG and 20 nM anti-His-Allophycocyanin. IC50 determination was performed by fitting the curve of percent control activity versus the log of the inhibitor concentration using the GraphPad Prism 5.0 software.

PD-L1 = PD-L1 (Homo sapiens (Human), UniProt Q9NZQ7); assay: PD-L1 whole blood internalization assay; type: cell-based; conditions: PD-L1 internalization in human whole blood, CD14+ cells, interferon γ, 24 hour
PD-L1, sequence (Q9NZQ7 19-290): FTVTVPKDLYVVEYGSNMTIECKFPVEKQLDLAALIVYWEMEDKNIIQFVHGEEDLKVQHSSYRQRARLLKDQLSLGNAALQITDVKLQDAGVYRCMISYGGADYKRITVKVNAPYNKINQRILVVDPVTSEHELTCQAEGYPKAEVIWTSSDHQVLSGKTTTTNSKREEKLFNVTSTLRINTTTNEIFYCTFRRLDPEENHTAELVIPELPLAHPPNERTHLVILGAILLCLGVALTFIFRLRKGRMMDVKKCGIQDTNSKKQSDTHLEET
Protocol: To determine PD-L1 internalization in human whole blood, normal human blood (Biological Specialty Corp, Colmar. Pa.) was incubated in the presence or absence of a concentration range of test compounds and 1 ng/mL human interferon γ (R&D Systems Inc. Minn. […] Blood was then stained with PD-L1 (MIH1, eBioscience; or BD Biosciences San Jose, Calif.), CD14 (Life Technologies, Carlsbad, Calif.) for 30 minutes in the dark at room temperature. Whole Blood/red cells were lysed/fixed (lysis buffer BD Biosciences) for 5 minutes at 37° C. in the dark and then centrifuged at 1600 RPM for 5 minutes. Cells were resuspended in Stain Buffer (BD Bioscience, San Jose, Calif.) and transferred into 96 well round bottom plates (Corning). Cells were gated on CD14+(BD Biosciences) and PD-L1 expression determined by mean fluorescence intensity (MFI) (BD LSRFortessa™ X-20). IC50 determination was performed by fitting the curve of compound percent inhibition versus the log of the compound concentration using the GraphPad Prism 7.0 software.

[2] = tested on: PD-L1 aAPC/CHO-K1 cells and Jurkat-PD-1-NFAT effector cells; assay: Nuclear factor of activated T-cells (NFAT) assay; type: cell-based; conditions: Cricetulus griseus, CHO-K1; luminescence, 24 hours
Protocol: PD-L1 aAPC/CHO-Klcells (Promega) were maintained in F-12 medium with addition of 10% FBS, 200 μg/mL Hygromycin B, 250 μg/mL Geneticin (G418). Jurkat-PD-1-NFAT effector cells (Promega) were cultured in RPMI 1640 medium supplemented with 10% FBS, 100 μg/mL Hygromycin B, 500 μg/mL G418. The culture media of PD-L1 aAPC/CHO-K1 cells were first replaced with assay medium (RPMI1640 medium with 1% FBS). The PD-L1 aAPC/CHO-Klcells were then added in a white 384-well white clear bottom assay plate (CELLCOAT® Tissue Culture Plates, Greiner Bio-One) at 8000 per well in 10 μL assay medium. Test compounds were prepared by serial dilution in DMSO and 0.8 μL test compounds in DMSO were first transferred to the 384 REMP plate well (Thermofisher) by PlateMate Plus (Thermofisher) followed with addition of 50 μL plating medium. 5 μL compounds in the assay medium were transferred to the cells with 0.4% DMSO in the final assay at 2 μM. After removing the culture media, 10,000 Jurkat-PD-1-NFAT effector cells in 5 μL assay medium was dispensed into each well. The assay plate was incubated at 37° C., 5% CO2 for 24 hours. After the assay plate was equilibrated to room temp for 15 minutes, 20 μL/well of Bio-Glo™ reagent (Promega) were added. After 8 minutes incubation at room temperature, luminescence was read at with Pherastar microplate reader (BMG Labtech). The fold of induction (FOI) was calculated based on the ratio of luminescence normalized to the DMSO wells within each assay plate. The maximum percentage of induction was reported based on the ratio between the highest FOI of each compound and the maximum FOI of control compound within each assay plate. Wells with DMSO were served as the negative controls and wells containing control compound with the highest FOI were used as positive controls. EC50 determination was performed by fitting the curve of percent control activity versus the log of the compound concentration using the GraphPad Prism 6.0 software.

| SMILES | pIC50 [1] | pIC50 (PD-1/PD-L1) | pIC50 (PD-L1) | pEC50 [2] |
| --- | --- | --- | --- | --- |
| Cn1c(C(=O)Nc2cccc(-c3cccc(NC(=O)c4nc5c(n4C)CCN(C4CCC(O)CC4)C5)c3Cl)c2Cl)nc2c1CCN(CC13CCC(C(=O)O)(CC1)C3)C2 (stereo not drawn) [Example 183, reference compound] | 8.25 | 8.74 | 7.31 | 7.74 |
| Cc1c(Nc2nc(C(F)F)nc3cc(CN4CCCC4)cnc23)cccc1-c1cccc(NC(=O)c2nc3c(n2C)CCN(CCC24CCC(C(=O)O)(CC2)C4)C3)c1Cl [Example 7, 4-(2-(2-((2-chloro-3′-((2-(difluoromethyl)-7-(pyrrolidin-1-ylmethyl)pyrido[3,2-d]pyrimidin-4-yl)amino)-2′-methyl-[1,1′-biphenyl]-3-yl)carbamoyl)-1-methyl-1,4,6,7-tetrahydro-5H-imidazo[4,5-c]pyridin-5-yl)ethyl)bicyclo[2.2.1]heptane-1-carboxylic Acid] | 8.66 | 8.82 | 7.80 | 8.40 |
| Cc1c(Nc2nc(C(F)F)nc3cc(CN4C[C@@H](O)C[C@H]4C)cnc23)cccc1-c1cccc(NC(=O)c2nc3c(n2C)CCN(CCC24CCC(C(=O)O)(CC2)C4)C3)c1Cl [Example 12, 4-(2-(2-((2-chloro-3′-((2-(difluoromethyl)-7-(((2R,4S)-4-hydroxy-2-methylpyrrolidin-1-yl)methyl)pyrido[3,2-d]pyrimidin-4-yl)amino)-2′-methyl-[1,1′-biphenyl]-3-yl)carbamoyl)-1-methyl-1,4,6,7-tetrahydro-5H-imidazo[4,5-c]pyridin-5-yl)ethyl)bicyclo[2.2.1]heptane-1-carboxylic Acid] | 8.52 | 8.82 | 7.52 | 7.39 |
| Cc1c(Nc2nc(C(F)F)nc3cc(CN4CC(O)C4)cnc23)cccc1-c1cccc(NC(=O)c2nc3c(n2C)CCN(CCC24CCC(C(=O)O)(CC2)C4)C3)c1Cl [Example 13, 4-(2-(2-((2-chloro-3′-((2-(difluoromethyl)-7-((3-hydroxyazetidine-1-yl)methyl)pyrido[3,2-d]pyrimidin-4-yl)amino)-2′-methyl-[1,1′-biphenyl]-3-yl)carbamoyl)-1-methyl-1,4,6,7-tetrahydro-5H-imidazo[4,5-c]pyridin-5-yl)ethyl)bicyclo[2.2.1]heptane-1-carboxylic Acid] | 8.52 | 8.74 | 7.62 | 8.52 |
| CC(C)N1CCc2c(nc(C(=O)Nc3cccc(-c4cccc(NC(=O)c5nc6c(n5C)CCN(CC57CCC(C(=O)O)(CC5)C7)C6)c4Cl)c3Cl)n2C)C1 [Example 177, reference compound] | 8.24 | 8.82 | 6.73 | 7.51 |
| Cc1c(Nc2nc(C(F)F)nc3cc(CN[C@@H]4CCC[C@@H]4O)cnc23)cccc1-c1cccc(NC(=O)c2nc3c(n2C)CCN(CCC24CCC(C(=O)O)(CC2)C4)C3)c1Cl [Example 9, 4-(2-(2-((2-chloro-3′-((2-(difluoromethyl)-7-((((1R,2S)-2-hydroxycyclopentyl)amino)methyl)pyrido[3,2-d]pyrimidin-4-yl)amino)-2′-methyl-[1,1′-biphenyl]-3-yl)carbamoyl)-1-methyl-1,4,6,7-tetrahydro-5H-imidazo[4,5-c]pyridin-5-yl)ethyl)bicyclo[2.2.1]heptane-1-carboxylic Acid] | 8.40 | 8.77 | 8.19 | 8.52 |
| Cc1c(Nc2nc(C(F)F)nc3cc(CN4CCC[C@H]4C)cnc23)cccc1-c1cccc(NC(=O)c2nc3c(n2C)CCN(CCC24CCC(C(=O)O)(CC2)C4)C3)c1Cl [Example 8, (R)-4-(2-(2-((2-chloro-3′-((2-(difluoromethyl)-7-((2-methylpyrrolidin-1-yl)methyl)pyrido[3,2-d]pyrimidin-4-yl)amino)-2′-methyl-[1,1′-biphenyl]-3-yl)carbamoyl)-1-methyl-1,4,6,7-tetrahydro-5H-imidazo[4,5-c]pyridin-5-yl)ethyl)bicyclo[2.2.1]heptane-1-carboxylic Acid] | 8.40 | 8.82 | 7.48 | 8.15 |
| Cc1c(NC(=O)c2nc3c(n2C)CCN(CCC24CCC(C(=O)O)(CC2)C4)C3)cccc1-c1cccc(Nc2nc(C(F)F)nc3cc(CN4CC[C@H](O)C4)cnc23)c1C [Example 15, (S)-4-(2-(2-((3′-((2-(difluoromethyl)-7-((3-hydroxypyrrolidin-1-yl)methyl)pyrido[3,2-d]pyrimidin-4-yl)amino)-2,2′-dimethyl-[1,1′-biphenyl]-3-yl)carbamoyl)-1-methyl-1,4,6,7-tetrahydro-5H-imidazo[4,5-c]pyridin-5-yl)ethyl)bicyclo[2.2.1]heptane-1-carboxylic Acid] | 8.54 | 8.82 | 7.24 | 8.05 |
| Cc1c(NC(=O)c2nc3c(n2C)CCN(C)C3)cccc1-c1cccc(NC(=O)c2nc3c(n2C)CCN(CC24CCC(C(=O)O)(CC2)C4)C3)c1Cl [Example 119, reference compound] | 8.31 | 8.47 | 6.75 | 7.09 |
